{"source": "ChEMBL document CHEMBL1152512", "about": "“The search for potent, small molecule NNRTIs: A review” (Bioorg Med Chem, 2009)", "key": {"[1]": {"tested_on": "Human immunodeficiency virus 1", "assay": "Antiviral activity against Human immunodeficiency virus 1 infected in human MT4 cells", "assay_type": "functional, organism-based", "settings": "Human immunodeficiency virus 1, MT4"}, "[2]": {"tested_on": "Human immunodeficiency virus", "assay": "Inhibition of wild-type HIV reverse transcriptase"}, "[3]": {"tested_on": "Human immunodeficiency virus type 1 reverse transcriptase (Human immunodeficiency virus 1), Q72547 [K103N]", "assay": "Inhibition of HIV reverse transcriptase K103N mutant"}, "[4]": {"tested_on": "Human immunodeficiency virus 1", "assay": "Antiviral activity against Human immunodeficiency virus 1 3B", "assay_type": "functional, organism-based"}, "[5]": {"target": "T1, Human immunodeficiency virus type 1 reverse transcriptase (Human immunodeficiency virus 1, UniProt Q72547)", "assay": "Inhibition of wild-type HIV1 reverse transcriptase"}, "[6]": {"target": "Human immunodeficiency virus type 1 reverse transcriptase (Human immunodeficiency virus 1, UniProt Q72547, K103N)", "assay": "Inhibition of HIV1 reverse transcriptase K103N mutant"}, "[7]": {"target": "Human immunodeficiency virus type 1 reverse transcriptase (Human immunodeficiency virus 1, UniProt Q72547, Y181C)", "assay": "Inhibition of HIV1 reverse transcriptase Y181C mutant"}, "[8]": {"assay": "Selectivity index, ratio of human MT4 cytotoxicity to inhibition of HIV1 cytopathicity", "assay_type": "toxicity", "settings": "MT4 cells, read-out: Selectivity Index"}, "[9]": {"target": "T1, Human immunodeficiency virus type 1 reverse transcriptase", "assay": "Inhibition of HIV1 reverse transcriptase"}}, "note": "pEC50, pIC50: −log10 of the molar value."}
{"compound": "C=CCN1Cc2cccc3[nH]c(=O)n(c23)CC1C", "note": "(stereo not given)", "values": [{"measurement": "pEC50", "setting": "[1]", "result": 4.21}]}
{"compound": "CCC1(c2cccc(OC)c2)Oc2ccccc2-n2cccc2C1=O", "note": "(stereo not given)", "values": [{"measurement": "INH", "setting": "[2]", "result": 0.05, "unit": "µM"}, {"measurement": "INH", "setting": "[3]", "result": 0.022, "unit": "µM"}]}
{"compound": "CC(C)=CCOc1cc(NC(=S)c2ccoc2C)ccc1Cl", "note": "[UC 781]", "values": [{"measurement": "pEC50", "setting": "[4]", "result": 7.82}]}
{"compound": "Cc1cc(S(N)(=O)=O)ccc1NC(=O)COc1ccc(Cl)cc1C(=O)c1cc(F)cc(C(F)(F)F)c1", "values": [{"measurement": "pIC50", "setting": "[5]", "result": "> 8.70"}, {"measurement": "pIC50", "setting": "[6]", "result": "> 8.00"}, {"measurement": "pIC50", "setting": "[7]", "result": "> 8.00"}]}
{"compound": "CC1=C(C(=O)Nc2ccc(Cl)c(C(=O)OC(C)C)c2)SCCO1", "values": [{"measurement": "pEC50", "setting": "[4]", "result": 7.82}]}
{"compound": "CC(C)=CCOc1cc(NC(=S)c2ccsc2C)ccc1Cl", "values": [{"measurement": "pEC50", "setting": "[4]", "result": 7.82}]}
{"compound": "CC(C)=CCN1Cc2c(Cl)ccc3[nH]c(=S)n(c23)C[C@@H]1C", "note": "[TIVIRAPINE]", "values": [{"measurement": "pEC50", "setting": "[1]", "result": 8.37}]}
{"compound": "CC(=O)c1ccc(C)cc1NC(C(N)=O)c1c(Cl)cccc1Cl", "note": "(stereo not given) [LOVIRIDE]", "values": [{"measurement": "pEC50", "setting": "[1]", "result": 7.89}, {"measurement": "selectivity ratio", "setting": "[8]", "result": 10000}]}
{"compound": "CCN(CC)CCOc1ccc(NC(=O)COc2ccccc2C(=O)c2ccc(OC)cc2)cc1", "values": [{"measurement": "pIC50", "setting": "[9]", "result": 4.68}]}
{"compound": "COc1ccccc1NC(C(N)=O)c1c(Cl)cccc1Cl", "note": "(stereo not given)", "values": [{"measurement": "pEC50", "setting": "[1]", "result": 6.21}, {"measurement": "selectivity ratio", "setting": "[8]", "result": 10000}]}
